Counter-ions that a name gives are not always drawn.
Columns and labels:
[1] = system: IFN-γ promoter dEGFP reporter, EL/p1-5′IFNγ-dEGFP/3 (EL4); assay: Prototype cell chip, flow cytometry, IFN-γ clone; assay type: cell-based, mouse
Protocol: (§1) Samples were analyzed in an EPICS® XL-MCL Coulter flow cytometer with Expo v.2 Analysis Software/Expo32 Analysis Software (Applied Cytometry Systems, Sheffield, UK). or any other suitable flow cytometer. Viable and dead cells were gated separately and results were determined based on fluorescence associated with viable cells only. Regions were set in control cells and the same regions were used in induction controls and chemically challenged cells. Percent positive cells and fluorescence intensity were noted and used in further calculations.
(§2) Index numbers were calculated from the median fluorescence intensity of viable cells. Cells incubated in the absence or presence of ionomycin/PMA were analysed separately. Each clone incubated with or without ionomycin/PMA, but without further chemicals/compounds was defined as index number=1, and the index numbers for the other exposures were calculated from this. Experiments with the same exposures were pooled to perform statistical analysis, using SigmaStat 2.03 statistical analysis software (SPSS Inc., Chicago, Ill. USA).
(§3) One way ANOVAs (one way analysis of variance) were performed. In cases where normality failed, we used Kruskal-Wallis One Way Analysis of Variance on Ranks. If the differences between groups were statistically significant (p<0.05), we continued with tests for multiple comparisons. In normally distributed data we used Bonferroni t-test and multiple comparisons versus the control. The control was chosen to be the sample incubated in the presence or absence of ionomycin/PMA only. When normality failed we used […] for multiple comparisons versus the control.
(§4) The following cell lines: EL/pCA-dEGFP/9, EL/p1-5′IL2-dEGFP/6, EL/p2-5′ IL4-dEGFP/2, EL/p1-5′IFNγ-dEGFP/3, and EL/p2-5′IL10-dEGFP/5, obtained by transfection with the DNA constructs containing promoter region derived from β-actin, IL2, IL4, INF-γ, and IL10 were employed to design the prototype cell chip. The prototype cell chip was used to test the activity of different substances.

[2] = system: β-actin promoter dEGFP reporter, EL/pCA-dEGFP/9 (EL4); assay: Prototype cell chip, flow cytometry, control clone; assay type: cell-based
Protocol: as §1, §2, §3, §4

[3] = system: IL-2 promoter dEGFP reporter, EL/p1-5′IL2-dEGFP/6 (EL4); assay: Prototype cell chip, flow cytometry, IL-2 clone; assay type: cell-based, mouse
Protocol: as §1, §2, §3, §4

[4] = system: cell lines developed in the project; assay: Cytotoxicity (cell viability) testing, LDH release; conditions: for concentration which led to 10% cytotoxicity: highest concentration used on the cell chip
Protocol: The basic cytotoxicty assay employed was LDH release. Several cytotoxicity assays were performed independently in two laboratories. […] In addition, the cytotoxicity associated with the solvent was also tested to eliminate the possibility of interference in the test outcome.
Cells were plated in 24 well microtiter plates at a density of 0.5×10^6 cells/mL and with a final volume of 1.5 mL/well. Two controls were included for each cell line, in each experiment.

[5] = system: IL-4 promoter dEGFP reporter, EL/p2-5′IL4-dEGFP/2 (EL4); assay: Prototype cell chip, flow cytometry, IL-4 clone; assay type: cell-based, mouse
Protocol: as §1, §2, §3, §4

[6] = system: IL-10 promoter dEGFP reporter, EL/p2-5′IL10-dEGFP/5 (EL4); assay: Prototype cell chip, flow cytometry, IL-10 clone; assay type: cell-based
Protocol: as §1, §2, §3, §4

[7] = system: IFN-γ fused to a stabile form of EGFP; assay: Clones with IFN-γ regulatory elements fused to a stabile form of EGFP; assay type: cell-based, mouse
Protocol: as §1
(§5) Index numbers were calculated from the median fluorescence intensity of viable cells. Cells incubated in the absence or presence of ionomycin/PMA were analysed separately. Each clone incubated with or without ionomycin/PMA, but without further chemicals/compounds was defined as index number=1, and the index numbers for the other exposures were calculated from this.
as §3

[8] = system: IL-2 fused to a stabile form of EGFP; assay: Clones with IL-2 regulatory elements fused to a stabile form of EGFP; assay type: cell-based, mouse
Protocol: as §1, §5, §3

[9] = system: J/p4-5′IL1β-dEGFP/4 reporter cell line; assay type: cell-based
[10] = system: IL-1β promoter dEGFP reporter, J/p4-5′IL1β-dEGFP/4 cells; assay type: cell-based, mouse
[11] = presence of ionomycin/PMA, highest concentration, 24 h
[12] = absence of ionomycin/PMA, 1:10 dilution, 24 h
[13] = absence of ionomycin/PMA, highest concentration, 24 h
[14] = presence of ionomycin/PMA, all tested concentrations, 24 h
[15] = presence of ionomycin/PMA, 1:10 dilution, 24 h
[16] = absence of ionomycin/PMA, all tested concentrations
[17] = absence of ionomycin/PMA, highest concentration
[18] = presence of ionomycin/PMA, highest concentration
[19] = presence of ionomycin/PMA, 1:10 dilution
[20] = presence of ionomycin/PMA, 1:100 dilution
[21] = presence of ionomycin/PMA, all tested concentrations

Structure (SMILES): N=C(N)c1ccc(OCCCCCOc2ccc(C(=N)N)cc2)cc1 [pentamidine, Pentamidine isethionate salt]
- IFN-γ clone fluorescence vs control [1, 11]: suppressed
- actin clone fluorescence vs control [2, 12]: increase
- actin clone fluorescence vs control [2, 13]: increase
- actin clone fluorescence vs control [2, 14]: not altered
- IL-2 clone fluorescence vs control [3, 15]: suppressed
- IL-2 clone fluorescence vs control [3, 11]: suppressed
- concentration which led to 10% cytotoxicity [4]: 30000 ng/mL
- IL-4 clone fluorescence vs control [5, 15]: suppressed
- IL-4 clone fluorescence vs control [5, 11]: suppressed
- IL-10 clone fluorescence vs control [6, 12]: clearly inhibited
- IL-10 clone fluorescence vs control [6, 13]: clearly inhibited
- IL-10 clone fluorescence vs control [6, 15]: suppressed
- IL-10 clone fluorescence vs control [6, 11]: suppressed

Structure (SMILES): CO[C@H]1C[C@@H]2CC[C@@H](C)[C@@](O)(O2)C(=O)C(=O)N2CCCC[C@H]2C(=O)O[C@H]([C@H](C)C[C@@H]2CC[C@@H](O)[C@H](OC)C2)CC(=O)[C@H](C)/C=C(\C)[C@@H](O)[C@@H](OC)C(=O)[C@H](C)C[C@H](C)/C=C/C=C/C=C/1C [Rapamycin]
- concentration which led to 10% cytotoxicity [4]: 10000 ng/mL

Structure (SMILES): O=C1CCC(N2C(=O)c3ccccc3C2=O)C(=O)N1 (racemic) [thalidomide, (+/−)—Thalidomide]
- IFN-γ clone fluorescence vs control [1, 16]: did not show any significant changes
- IFN-γ clone fluorescence vs control [1, 14]: only actin inhibited
- actin clone, inhibition [2, 17]: 5-10%
- actin clone fluorescence vs control [2, 18]: inhibited
- IL-2 clone fluorescence vs control [3, 16]: did not show any significant changes
- IL-2 clone fluorescence vs control [3, 14]: only actin inhibited
- IFN-γ expression, stabile EGFP clone [7, 19]: did not show detectable effects
- IFN-γ expression, stabile EGFP clone [7, 20]: did not show detectable effects
- IFN-γ expression, stabile EGFP clone [7, 18]: dose-dependent inhibition
- IL-2 inhibition, stabile EGFP clone [8, 17]: 10%
- IL-2 expression, stabile EGFP clone [8, 19]: did not show detectable effects
- IL-2 expression, stabile EGFP clone [8, 20]: did not show detectable effects
- IL-2 expression, stabile EGFP clone [8, 18]: dose-dependent inhibition
- toxicity (LDH-assay) [4]: did not find thalidomide to be toxic
- IL-4 clone fluorescence vs control [5, 16]: did not show any significant changes
- IL-4 clone fluorescence vs control [5, 14]: only actin inhibited
- IL-10 clone fluorescence vs control [6, 16]: did not show any significant changes
- IL-10 clone fluorescence vs control [6, 14]: only actin inhibited

Structure (SMILES): [Cl][Hg][Cl] [mercuric chloride, Mercury (II) chloride]
- IFN-γ expression, stabile EGFP clone [7, 16]: exposure effects were not observed
- IFN-γ expression, stabile EGFP clone [7, 18]: apparently dose-dependent reduction
- IL-2 expression, stabile EGFP clone [8, 16]: exposure effects were not observed
- IL-2 expression, stabile EGFP clone [8, 21]: not affected

Structure (SMILES): CCC[CH2][Sn]([CH2]CCC)([CH2]CCC)[O][Sn]([CH2]CCC)([CH2]CCC)[CH2]CCC [TBTO, Bis(tri-n-butyltin) oxide]
- IFN-γ expression, stabile EGFP clone [7, 16]: failed to show altered expression
- IL-2 expression, stabile EGFP clone [8, 16]: failed to show altered expression
- IL-2 expression, stabile EGFP clone [8, 19]: statistically significant inhibition
- IL-2 inhibition, stabile EGFP clone [8, 19]: 10%

Structure (SMILES): Cc1ccc(N=C=O)cc1N=C=O [TDI, Tolylene 2,4-diisocyanate]
- IFN-γ clone fluorescence vs control [1, 13]: significant induction
- concentration which led to 10% cytotoxicity [4]: 500 µM
- IL-4 clone fluorescence vs control [5, 11]: statistically significant increase

Structure (SMILES): CCCCCCCCCCCCOS(=O)(=O)[O-].[Na+] [SDS, Sodium Dodecyl Sulphate]
- IFN-γ expression, stabile EGFP clone [7, 16]: exposure effects were not observed
- IFN-γ expression, stabile EGFP clone [7, 21]: not affected
- IL-2 expression, stabile EGFP clone [8, 16]: exposure effects were not observed
- IL-2 expression, stabile EGFP clone [8, 18]: apparently dose-dependent reduction

Structure (SMILES): CCOC(=O)c1ccc(N)cc1 [benzocaine, Ethyl-4-Aminobenzoate]
- IFN-γ clone fluorescence vs control [1, 11]: inhibited
- actin clone fluorescence vs control [2, 13]: significantly increased
- IL-2 clone fluorescence vs control [3, 15]: statistically significant inhibitory effect
- IL-2 clone fluorescence vs control [3, 11]: statistically significant inhibitory effect
- toxicity (LDH-assay) [4]: did not find benzocaine to be toxic
- IL-10 clone fluorescence vs control [6, 15]: statistically significant inhibitory effect
- IL-10 clone fluorescence vs control [6, 11]: statistically significant inhibitory effect

Structure (SMILES): O=[N+]([O-])c1ccc(Cl)c([N+](=O)[O-])c1 [DNCB, 1-Chloro-2,4-dinitrobenzene]
- IFN-γ clone fluorescence vs control [1, 13]: increased expression
- IFN-γ clone fluorescence vs control [1, 14]: no statistically significant changes were found
- actin clone fluorescence vs control [2, 13]: increased expression
- actin clone fluorescence vs control [2, 14]: no statistically significant changes were found
- IL-2 clone fluorescence vs control [3, 13]: increased expression
- IL-2 clone fluorescence vs control [3, 14]: no statistically significant changes were found
- IFN-γ expression, stabile EGFP clone [7, 17]: apparently dose-dependent increase reaching statistical significance at the highest concentration
- IFN-γ expression, stabile EGFP clone [7, 21]: failed to alter expression
- IL-2 expression, stabile EGFP clone [8, 21]: failed to alter expression
- concentration which led to 10% cytotoxicity [4]: 10 µM
- IL-4 clone fluorescence vs control [5, 13]: increased expression
- IL-4 clone fluorescence vs control [5, 14]: no statistically significant changes were found
- IL-10 clone fluorescence vs control [6, 14]: no statistically significant changes were found

Structure (SMILES): [Cl][Pt-2]([Cl])([Cl])[Cl].[K+].[K+] [K2PtCl4, Potassium tetrachloro-platinate (II)]
- NO levels in supernatants [9]: elevated levels
- IFN-γ expression, stabile EGFP clone [7, 16]: exposure effects were not observed
- IFN-γ expression, stabile EGFP clone [7, 18]: dose-dependent reduction
- IL-2 expression, stabile EGFP clone [8, 16]: exposure effects were not observed
- IL-2 expression, stabile EGFP clone [8, 18]: dose-dependent reduction
- GFP fluorescence under microscope [10]: didn′t show noticeable fluorescence
- mRNA for GFP ([10]; 100 μM, stimulated for 6 h): upregulation of mRNA for GFP

Source: US8361711B2, “Tools and methods useful in characterising the immunotoxic activity of xenobiotic substances” (National Institute of Public Health and the Environment, …, priority 2004, dated 2013)
